Assay results from US20080293699A1, “Inhibitors of thapsigargin-induced cell death” (priority 2007, published 2008).

Experiments:
[1] = target: Ire1 (Homo sapiens, UniProt O75460); assay: Ire1 autophosphorylation in vitro kinase assay; format: biochemical; conditions: 32P-γ-ATP, up to 50 μM
Protocol: (§1) Suppression of thapsigargin-induced phosphorylation of p38MAPK was also measured by a quantitative ELISA-methods, with IC50 for p38MAPK phosphorylation estimated at <5 μM. In contrast, thapsigargin-induced expression of CHOP, expression of ATF4, proteolytic processing of ATF6, phosphorylation of eIF2a (Ser 51), auto-phosphorylation of Ire1a or auto-phosphorylation of ASK1 were not inhibited directly by CID-2878746 at concentrations up to 50 μM tested by in vitro kinase assay using p32-γ-ATP substrate. […] Thapsigargin-induced reductions in phosphorylation of ASK1 at the serine 967 site in ASK1 transfected 293T cells are inhibited by compound 5962123 at concentrations of 50-100 μM, as determined by immunoblotting using anti-phospho-specific (ser 967) antibody, but thapsigargin-induced changes in phosphorylation of ASK1 at ser 83 and thr 845 are not modulated by compound 5962123 at concentrations as high as 100 μM in ASK1-transfected HEK293T cells.
(§2) C-Jun and p38 MAPK work downstream of the Ire1 pathway (see FIG. 21), we tested whether one of our hit compounds (6239507) inhibits autophosphorylation of any of kinases in this Ire1-ASK1-JNK/p38 MAPK pathway. […] An Ire1 autophosphorylation assay was performed. […] Incorporation values of ^32P-γ-ATP were evaluated by a scintillation counter. […] Incorporation values of ^32P-γ-ATP were evaluated by a scintillation counter. […]

[2] = target: T1, ASK1 (Homo sapiens, UniProt Q99683); assay: ASK1-MKK6-p38 coupled in vitro kinase assay; format: biochemical
T1 construct: expressed in transfected cells; host or cells: HEK293T
T1 sequence (Q99683 1-1374): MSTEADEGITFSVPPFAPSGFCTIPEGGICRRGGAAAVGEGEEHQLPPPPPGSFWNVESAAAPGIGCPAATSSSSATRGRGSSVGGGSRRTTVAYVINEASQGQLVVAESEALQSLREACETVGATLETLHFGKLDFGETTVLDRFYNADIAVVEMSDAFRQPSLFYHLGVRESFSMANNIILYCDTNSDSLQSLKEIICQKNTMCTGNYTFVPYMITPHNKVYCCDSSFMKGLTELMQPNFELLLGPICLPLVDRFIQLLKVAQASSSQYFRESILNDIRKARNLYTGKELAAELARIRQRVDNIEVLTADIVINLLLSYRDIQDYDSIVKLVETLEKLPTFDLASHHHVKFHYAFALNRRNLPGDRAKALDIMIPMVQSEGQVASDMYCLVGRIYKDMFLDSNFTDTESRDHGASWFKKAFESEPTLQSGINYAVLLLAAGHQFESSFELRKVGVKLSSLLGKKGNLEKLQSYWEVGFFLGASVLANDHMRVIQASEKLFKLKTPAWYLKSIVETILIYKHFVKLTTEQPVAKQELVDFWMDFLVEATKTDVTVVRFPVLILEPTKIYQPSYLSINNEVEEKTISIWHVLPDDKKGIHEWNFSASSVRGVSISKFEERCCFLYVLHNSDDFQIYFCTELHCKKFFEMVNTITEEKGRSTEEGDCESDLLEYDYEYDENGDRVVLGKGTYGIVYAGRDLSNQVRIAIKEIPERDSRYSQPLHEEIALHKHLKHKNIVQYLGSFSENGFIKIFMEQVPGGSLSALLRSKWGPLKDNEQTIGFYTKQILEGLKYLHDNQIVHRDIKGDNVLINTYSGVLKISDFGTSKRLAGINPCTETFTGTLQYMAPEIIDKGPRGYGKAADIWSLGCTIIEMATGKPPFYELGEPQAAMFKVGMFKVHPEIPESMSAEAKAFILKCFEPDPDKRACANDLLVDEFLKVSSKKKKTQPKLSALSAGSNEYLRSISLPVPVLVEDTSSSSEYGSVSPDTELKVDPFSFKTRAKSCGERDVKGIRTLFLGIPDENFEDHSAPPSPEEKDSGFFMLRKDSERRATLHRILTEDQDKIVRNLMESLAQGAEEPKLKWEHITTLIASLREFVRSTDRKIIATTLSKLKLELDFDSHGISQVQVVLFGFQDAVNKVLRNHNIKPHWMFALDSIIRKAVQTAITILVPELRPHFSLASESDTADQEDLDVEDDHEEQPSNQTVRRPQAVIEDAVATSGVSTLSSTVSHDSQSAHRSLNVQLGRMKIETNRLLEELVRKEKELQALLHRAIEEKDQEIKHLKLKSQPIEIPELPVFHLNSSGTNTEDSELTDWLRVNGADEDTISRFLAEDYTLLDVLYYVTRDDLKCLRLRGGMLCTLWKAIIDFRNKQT
Protocol: as §1, §2

[3] = system: ATF4; assay: Thapsigargin-induced expression of ATF4 (immunoblotting); format: cell-based, rat; conditions: listed as CID-2878746

Sequence of Ire1 (O75460 19-977, species assumed): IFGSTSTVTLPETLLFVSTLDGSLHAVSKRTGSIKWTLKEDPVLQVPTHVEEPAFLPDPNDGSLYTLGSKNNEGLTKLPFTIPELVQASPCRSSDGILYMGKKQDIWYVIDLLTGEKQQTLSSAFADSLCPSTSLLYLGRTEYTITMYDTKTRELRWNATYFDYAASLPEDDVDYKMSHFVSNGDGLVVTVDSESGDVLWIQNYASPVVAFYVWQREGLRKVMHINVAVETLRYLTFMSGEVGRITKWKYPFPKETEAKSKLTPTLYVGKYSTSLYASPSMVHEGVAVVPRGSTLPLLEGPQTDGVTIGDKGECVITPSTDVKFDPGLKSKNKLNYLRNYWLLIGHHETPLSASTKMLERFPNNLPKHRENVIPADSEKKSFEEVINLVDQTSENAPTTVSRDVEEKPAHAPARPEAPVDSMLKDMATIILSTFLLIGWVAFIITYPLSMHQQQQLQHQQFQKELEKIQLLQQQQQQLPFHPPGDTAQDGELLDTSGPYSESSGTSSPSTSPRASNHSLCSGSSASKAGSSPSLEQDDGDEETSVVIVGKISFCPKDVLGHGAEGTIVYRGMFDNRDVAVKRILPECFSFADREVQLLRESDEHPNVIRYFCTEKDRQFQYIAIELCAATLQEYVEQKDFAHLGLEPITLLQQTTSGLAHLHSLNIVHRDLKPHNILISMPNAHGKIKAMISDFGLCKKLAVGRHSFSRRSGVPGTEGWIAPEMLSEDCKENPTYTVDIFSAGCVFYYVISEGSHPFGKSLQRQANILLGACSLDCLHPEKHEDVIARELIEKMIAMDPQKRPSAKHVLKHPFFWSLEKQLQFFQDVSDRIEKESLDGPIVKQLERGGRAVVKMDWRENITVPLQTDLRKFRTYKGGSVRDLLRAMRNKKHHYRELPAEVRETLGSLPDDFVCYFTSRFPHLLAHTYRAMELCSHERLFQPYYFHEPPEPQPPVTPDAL

| SMILES | Ire1 auto-phosphorylation ([1]; listed as CID-2878746) | Thapsigargin-induced activation of ASK1 in cells ([2]; coupled assay with MKK6 and p38MAPK, ASK1 immunoprecipitated from compound-treated (100 μM) HEK293T cells) | Thapsigargin-induced expression of ATF4 [3] | Ire1 auto-phosphorylation [1] | Ask1's activity with respect to downstream kinases MKK6 and p38 MAPK ([2]; kinases incubated with 50 μM compound in vitro) |
| --- | --- | --- | --- | --- | --- |
| CCN(CC)c1ccc(C2Nc3ccccc3NC3=C2C(=O)CC(c2ccccc2)C3)cc1 (centres unmarked) [Compound 5962123, 6-(4-diethylaminophenyl)-9-phenyl-5,6,8,9,10,11-hexahydrobenzo[c][1,5]benzodiazepin-7-one] | not inhibited | failed to inhibit | not inhibited | – | – |
| COc1ccc(C2CC(=O)C3=C(C2)Nc2ccccc2NC3c2cccc(Oc3ccccc3)c2)cc1OC (centres unmarked) [Compound 6239507] | – | – | – | does not modulate | does not modulate |
